A word on the IC50: it is the concentration at which inhibition is half-maximal.

This passage reports IC50 results from publication PMC10058905, “Bioassay-Guided Alkaloids Isolation from Camellia sinensis and Colchicum luteum: In Silico and In Vitro Evaluations for Protease Inhibition” (Molecules, 2023).

The test deals with T1, Trypsin from bovine pancreas (Bos taurus, UniProt P00760).
T1 construct: gene PRSS1
T1 sequence (P00760 24-246): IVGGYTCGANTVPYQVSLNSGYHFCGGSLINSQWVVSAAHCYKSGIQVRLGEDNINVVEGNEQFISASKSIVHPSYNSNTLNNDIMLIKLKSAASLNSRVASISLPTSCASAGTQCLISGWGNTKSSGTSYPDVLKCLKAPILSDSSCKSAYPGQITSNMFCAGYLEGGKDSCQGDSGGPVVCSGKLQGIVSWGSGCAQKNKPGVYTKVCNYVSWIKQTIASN
As to the kind of experiment: spectrophotometric BApNA hydrolysis assay, positive control. The test is classed as biochemical.

Molecule `O=S(=O)(F)Cc1ccccc1` [PMSF] returned an IC50 of 110 ± 20 µM.
